From patent US20050215543A1, “Methods of treating HIV infection” (priority 2004, published 2005)

Tested on: HIV-1 LAI
Test: microbe, parasite or virus in culture
Conditions: for EC50: Human immunodeficiency virus 1, MT2, 120 h; for Combination Indices at % HIV Inhibition (Confidence Interval) 50%: 50% HIV inhibition; for Combination Indices at % HIV Inhibition (Confidence Interval) 50% / Combination Indices at % HIV Inhibition (Confidence Interval) 75% / Combination Indices at % HIV Inhibition (Confidence Interval) 90%: 95% CI in parenthesis; for Combination Indices at % HIV Inhibition (Confidence Interval) 75%: 75% HIV inhibition; for Combination Indices at % HIV Inhibition (Confidence Interval) 90%: 90% HIV inhibition; for Overall Result: two-drug combination with Compound 1, all ratios and effect levels, MT-2/HIV-1 LAI, RT assay
Experimental: Virus and cell lines. The T-cell lines, MT-2 and PM-1 were obtained through the AIDS Research and Reference Reagent Program, NIAID, and were contributed by Dr. D. Richman and Dr. R. Gallo, respectively. Both cell lines were cultured in RPMI 1640 medium supplemented with 10% fetal bovine serum, 2 mM L-glutamine and sub-cultured twice a week. The LAI strain of HIV-1 was obtained from the Fred Hutchinson Cancer Research Center, and the Bal strain was from NIH. Both virus stocks were amplified and titered in MT-2 cells (LAI) and PM-1 cells (Bal) using a virus infectivity assay.
Drug Susceptibility and Cytotoxicity Assays. For drug susceptibility assays, MT-2 cells were infected with HIV-1 LAI (or PM-1 cells with HIV-1 Bal) at an MOI of 0.005, and seeded into 96-well microtiter plates (0.1×10^6 cells/ml) containing serial dilutions of test compounds. […] Each drug ratio consisted of an array of 3-fold serial dilutions, and was performed in quadruplicate. The plates were incubated at 37° C./5% CO2. The MT-2 cells infected with HIV-1 LAI were incubated for 5 days. On day-five post-infection, 20 μl from each well was harvested and quantitated by a reverse transcriptase (RT) assay, or in samples involving non-nucleoside RT inhibitors, an MTS assay. The PM-1 cells infected with HIV-1 Bal and used for studying the combinations with CCR5 inhibitors were incubated for six days. On day-six post-infection, 20 μl from each well was harvested, 20- and 50-fold diluted and quantitated by p24 assay. Cytotoxicity assays were performed using uninfected cells, exposed to the same drug combinations, and incubated for six days. Cell viability was determined by an XTT assay. The CC50 values were calculated by using the exponential form of the median effect equation as mentioned below for calculation of EC50.
Analysis of Drug Combination Effects. For determination of CI values, drugs were diluted in a fixed ratio and multiple ratios were analyzed. The drug serial dilutions spanned a range of concentrations near the EC50 value of each compound, so that equivalent antiviral activities could be compared. Concentration-response curves were estimated for each individual drug and every combination using the median-effect equation. The equation was fit using a nonlinear regression routine (Proc Nlin) in PC SAS version 8.01 (SAS Institute Inc., SAS Version 8.01, Cary, N.C.: SAS Institute Inc., 1990).
In this equation, Fa stands for “fraction affected,” and represents the fraction of the viral load that has been inactivated. […] ED50 is drug concentration that is expected to reduce the amount of virus by 50%, and m is a parameter that reflects the slope of the concentration-response curve.
To assess antiviral effects of different drug combination treatments, combination indices (CIs) were calculated according to Chou and Rideout. The combination index was computed as CI=[D]1/[Dm]1+[D]2/[Dm]2
In this equation [Dm]1 and [Dm]2 are the concentrations of drugs that would individually produce a specific level of effect, while [D]1 and [D]2 are the concentrations of drugs in combination that would produce the same level of effect.
Theoretically, additivity is implied if the CI is equal to one, synergy if the CI is less than one, and antagonism if the CI is greater than one. […] At best, we can construct a range that contains the likely values for the CI, given the noise in the data. In this report, these ranges are reported in parentheses next to each point estimate of the CI. […] If the range fell entirely above 1.0, we would infer antagonistic behavior. If the range were to include 1.0, we would infer additivity.
In carrying out the combination experiments below, the EC50 for Compound 1 and each comparator compound was determined during the course of each study, and used in the subsequent data analysis.

[1] = combination with Compound 1, EC50 ratio 1:1 (Compound 1:comparator)
[2] = combination with Compound 1, EC50 ratio 1:1
[3] = combination with Compound 1, EC50 ratio 1:2.5
[4] = combination with Compound 1, EC50 ratio 2.5:1

Row | Compound | EC50 [nM] | Combination Indices at % HIV Inhibition (Confidence Interval) 50% [1] | Combination Indices at % HIV Inhibition (Confidence Interval) 75% [2] | Combination Indices at % HIV Inhibition (Confidence Interval) 90% [2] | Combination Indices at % HIV Inhibition (Confidence Interval) 50% [3] | Combination Indices at % HIV Inhibition (Confidence Interval) 75% [3] | Combination Indices at % HIV Inhibition (Confidence Interval) 90% [3] | Combination Indices at % HIV Inhibition (Confidence Interval) 50% [4] | Combination Indices at % HIV Inhibition (Confidence Interval) 75% [4] | Combination Indices at % HIV Inhibition (Confidence Interval) 90% [4] | Overall Result | Overall Result (listed as emtricitabine) | Overall Result (listed as lopinavir) | Overall Result (listed as atazanavir) | Overall Result (listed as saquinavir)
1 | Nc1nc(=O)n([C@@H]2CS[C@H](CO)O2)cc1F [Emtricitabine, emtricitabine] | 34 | 0.57 (0.49, 0.64) | 0.33 (0.27, 0.39) | 0.19 (0.14, 0.24) | 0.38 (0.31, 0.45) | 0.48 (0.36, 0.60) | 0.60 (0.36, 0.84) | 0.17 (0.15, 0.19) | 0.21 (0.17, 0.25) | 0.26 (0.18, 0.34) | Synergistic | consistent synergy at all effective levels and concentration ratios | – | – | –
2 | Cc1cccc(C)c1OCC(=O)N[C@@H](Cc1ccccc1)[C@@H](O)C[C@H](Cc1ccccc1)NC(=O)[C@H](C(C)C)N1CCCNC1=O [Lopinavir, lopinavir] | 1 | 0.23 (0.16, 0.42) | 0.22 (0.14, 0.30) | 0.26 (0.09, 0.44) | 0.13 (0.08, 0.18) | 0.06 (0.05, 0.08) | 0.03 (0.02, 0.05) | 1.13 (0.73, 1.52) | 0.50 (0.26, 0.74) | 0.30 (0.07, 0.52) | Synergistic | – | strong synergistic effects | – | –
3 | COc1ncc(OC)c2c(C(=O)C(=O)N3CCN(C(=O)c4ccccc4)CC3)c[nH]c12 [Compound 1, 1-benzoyl-4-[2-(4,7-dimethoxy-1H-pyrrolo[2,3-c]pyridin-3-yl)-1,2-dioxoethyl]-piperazine] | 1 to 4 | – | – | – | – | – | – | – | – | – | – | – | – | – | –
4 | O=c1[nH]cnc2c1ncn2[C@H]1CC[C@@H](CO)O1 [Didanosine, didanosine] | 1800 | 1.29 (1.18, 1.40) | 0.69 (0.60, 0.78) | 0.37 (0.29, 0.44) | 0.53 (0.46, 0.60) | 0.32 (0.26, 0.38) | 0.19 (0.13, 0.25) | 0.95 (0.74, 1.17) | 0.69 (0.48, 0.90) | 0.50 (0.26, 0.74) | – | – | – | – | –
5 | Nc1nc(NC2CC2)c2ncn([C@H]3C=C[C@@H](CO)C3)c2n1 [Abacavir, abacavir] | 400 | 0.29 (0.16, 0.42) | 0.51 (0.20, 0.82) | 0.91 (0.03, 1.78) | 0.53 (0.36, 0.70) | 0.61 (0.33, 0.88) | 0.71 (0.21, 1.22) | 0.36 (0.27, 0.45) | 0.52 (0.34, 0.71) | 0.76 (0.34, 1.19) | – | – | – | – | –
6 | COC(=O)N[C@H](C(=O)N[C@@H](Cc1ccccc1)[C@@H](O)CN(Cc1ccc(-c2ccccn2)cc1)NC(=O)[C@@H](NC(=O)OC)C(C)(C)C)C(C)(C)C [Atazanavir, atazanavir] | 1 | 1.04 (0.60, 1.49) | 0.58 (0.24, 0.93) | 0.33 (0.02, 0.64) | 0.23 (0.09, 0.38) | 0.35 (0.07, 0.63) | 0.52 (0.00, 1.24) | 0.88 (0.49, 1.27) | 0.67 (0.26, 1.09) | 0.52 (0.01, 1.04) | Additive- | – | – | additive to synergistic | –
7 | CC(C)(C)NC(=O)[C@@H]1C[C@@H]2CCCC[C@@H]2CN1C[C@@H](O)[C@H](Cc1ccccc1)NC(=O)[C@H](CC(N)=O)NC(=O)c1ccc2ccccc2n1 [Saquinavir, saquinavir] | 9 | 0.97 (0.88, 1.07) | 0.92 (0.76, 1.07) | 0.87 (0.65, 1.09) | 0.22 (0.20, 0.24) | 0.26 (0.22, 0.29) | 0.29 (0.24, 0.35) | 1.07 (0.95, 1.20) | 0.92 (0.74, 1.10) | 0.80 (0.45, 1.14) | Additive- | – | – | – | additive to synergistic
